In data set [1] the target is T1, IDH2 R140Q (Homo sapiens, UniProt P48735, R140Q).
T1 sequence (P48735 40-452 R140Q): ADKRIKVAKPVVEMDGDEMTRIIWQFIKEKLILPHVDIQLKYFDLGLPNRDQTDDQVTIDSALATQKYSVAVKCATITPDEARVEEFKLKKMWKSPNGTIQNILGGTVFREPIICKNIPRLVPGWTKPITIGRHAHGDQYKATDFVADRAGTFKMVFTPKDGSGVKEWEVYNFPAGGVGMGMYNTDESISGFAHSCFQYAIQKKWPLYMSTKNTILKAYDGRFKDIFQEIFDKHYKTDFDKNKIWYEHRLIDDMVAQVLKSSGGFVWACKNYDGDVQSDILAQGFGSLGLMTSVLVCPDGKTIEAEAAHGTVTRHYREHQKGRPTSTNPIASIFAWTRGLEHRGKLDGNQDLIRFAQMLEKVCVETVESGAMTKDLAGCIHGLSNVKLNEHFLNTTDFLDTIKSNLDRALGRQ
The following applies: 10 μM compound; NADH 0.5 mM; αKG 10 mM; enzyme 7.5 μg/ml; 37° C.
Description: Briefly, enzyme reactions were set up in 384-well plate format with purified enzyme (7.5 μg/ml), NADH (0.5 mM), αKG (10 mM; added last to start reaction), and HEPES buffer. Compounds were screened using a concentration of 10 μM in DMSO. No enzyme groups were used for each condition as negative controls. […] Reactions were incubated at 37° C., and absorbance at 340 nm was monitored using an EnVision plate reader at 30-minute intervals. Results were analyzed using KNIME. Briefly, concatenated spreadsheets containing absorbance metadata (well number, plate information, absorbance read outs etc.) were merged. For baseline correction, the “no enzyme with drug” values (N1: no enzyme negative control with drug) for each condition were subtracted from the “plus enzyme with drug” values (S: enzyme with drug) for each condition. Then the baseline corrected enzyme values (S−N1) were normalized to the “no enzyme control” values (N2: no enzyme control with DMSO) to calculate robust (median based) percent of “no enzyme control” (POC) and Z-scores. […] To confirm hits, enzyme assays were carried out in the same as screening but in a 96-well plate format with 10 μM of each hit, and purified enzyme (7.5 μg/ml), NADH (0.5 mM), and αKG (10 mM). Absorbance was read at 340 nm every 15 sec for 3 hr.

Data set [2] relates to IDH2 R140Q. The following applies: cited from earlier work.
Data set [3] relates to Ba/F3 leukemia cells with IDH2 allelic configurations. The format is cell-based, mouse.
Description: Panel A Schematic depicting IDH2 dimers retrovirally transduced into Ba/F3 cells. ‘Pre’received IDH2 WT-mCherry plus IDH2 RQ-YFP; ‘Trans’ received IDH2 RQ-YFP plus IDH2 IM-GFP; ‘Cis’ received IDH2 WT-mCherry plus IDH2 RQ/IM-GFP. […] Panel C Competitive growth of ‘Pre’, ‘Trans’, and ‘Cis’ cells mixed at a 1:1:1 ratio and cultured with vehicle (DMSO) or the mutant IDH2 inhibitor enasidenib (100 nM). Changes in the percentage of ‘Pre’, ‘Trans’, and ‘Cis’ cells were assessed weekly by flow cytometry (n=3). […] Results throughout figure are representative of >3 independent experiments. Data are mean±SEM unless otherwise specified. **P<0.01, ***P<0.001, ****P<0.0001.
Cells harboring these distinct allelic configurations were marked with different combinations of fluorescent proteins (FIG. 1 panel B).
In data set [4] the test system is IDH2 R172X. The data set is described as follows: Effect of EDBN on IDH2 R172X mutations. The format is biochemical. Conditions: FIG. 50.
Data set [5] deals with T1, IDH2 R140Q. The data set is described as follows: NADH-dependent reduction of αKG to 2HG, RQ. Conditions: role: cofactor; RQ homodimers; NADH 0.25 mM; αKG 5.0 mM.
Substrate in data set [6]: O=C(O)CCC(=O)C(=O)O
Description: NADPH-dependent 2HG production, Michaelis-Menten kinetics, active-site RQ homodimers. The format is biochemical, human. Conditions: other: role: substrate, cofactor NADPH 0.33 mM, enzyme 7.5 μg/ml, 37.0 °C.

Consider `O=c1c(O)c(-c2ccc(O)c(O)c2)oc2c(O)c(O)cc(O)c12` [Gossypetin], for which, in data set [1], the “Z-Score, Screen #1” value is reported as 9.982 and the “Z-Score, Screen #2” value was 13.35.
The matching figures for `CC(=O)O[C@@H]1C[C@H]2C(C)(C)C(=O)CC[C@]2(C)[C@H]2CC[C@@]3(C)[C@H](c4ccoc4)OC(=O)[C@H]4O[C@]43[C@@]21C` [Dihydrogedunin]: 9.578 and 4.452.
On to `CC(C)(O)CNc1nc(Nc2ccnc(C(F)(F)F)c2)nc(-c2cccc(C(F)(F)F)n2)n1` [enasidenib], for which, in data set [2], the “effect of allosteric binding on active site conformation” value was “can stabilize inhibitory open conformation”. Besides, in data set [3], the “competitive growth of 'Cis' cells” value is listed as “selective growth disadvantage” and the “competitive growth of 'Trans' cells” value is “selectively grew out in the presence of enasidenib”.
Take `CC(=O)O[C@@H]1C[C@H]2C(C)(C)C(=O)C=C[C@]2(C)[C@H]2CC[C@]3(C)C(=CC(=O)O[C@H]3c3ccoc3)[C@@]21C` [Deoxygedunin]: in data set [1], the “Z-Score, Screen #1” value was determined as 7.959 and the “Z-Score, Screen #2” value is given as 7.554.
Consider `CCc1ccc2[nH]c3nc(C)cc(C)c3c(=O)c2c1` [EDBN, 7-ethyl-2,4-dimethylbenzo[b][1,8]naphthyridin-5(10H)-one], for which, in data set [4], the “activity on IDH2 R172X mutations” value is listed as “also works on IDH2 R172X mutations”.
Regarding `NC(=O)C1=CN([C@@H]2O[C@H](COP(=O)(O)OP(=O)(O)OC[C@H]3O[C@@H](n4cnc5c(N)ncnc54)[C@H](O)[C@@H]3O)[C@@H](O)[C@H]2O)C=CC1` [NADH, nicotinamide adenine dinucleotide], in data set [5], the “use of NADH to reduce αKG” value is given as “no ability to use NADH to reduce αKG”.
Regarding `COC1=C(OC)C(=O)C(CCCCCCCCCCO)=C(C)C1=O` [Idebenone], in data set [1], the “Z-Score, Screen #1” value is on record as 11.33 and the “Z-Score, Screen #2” value amounted to 8.499.

B1: IDH2 R140Q (RQ) homodimers (Homo sapiens; R140Q) (protein)
chain: T1 sequence (P48735 40-452 R140Q)
Turning to B1, in data set [6], the Km is 1740 µM, the Vmax was 6.95 µM/min and the kcat/Km was found to be 2.14e+06 M⁻¹ s⁻¹.

By Km is commonly meant the concentration of substrate that gives half-maximal velocity. As a reminder, the Vmax is the top rate of the reaction or transport when substrate is in excess. One may read the kcat/Km as the turnover number divided by the Michaelis constant.

The values are drawn from patent US20260308535A1, “ANTI-CANCER TREATMENTS AND METHODS OF USE THEREOF” (Memorial Sloan-Kettering Cancer Center, priority 2023, published 2026).
